Source: patent publication US12617758B2, “Quinazoline derivative having FLT3 inhibitory activity, and use thereof” (INDUSTRY-UNIVERSITY COOPERATION FOUNDATION HANYANG …, priority 2020, dated 2026)

Biological target: BRAF (V599E) (Homo sapiens, UniProt P15056, V600E)
Assay: Kinase panel screening
Format: biochemical
Conditions: single dose of 10 μM, read-out: % inhibition rate

BRAF (V599E), sequence (P15056 416-766 V600E limits assumed, species assumed): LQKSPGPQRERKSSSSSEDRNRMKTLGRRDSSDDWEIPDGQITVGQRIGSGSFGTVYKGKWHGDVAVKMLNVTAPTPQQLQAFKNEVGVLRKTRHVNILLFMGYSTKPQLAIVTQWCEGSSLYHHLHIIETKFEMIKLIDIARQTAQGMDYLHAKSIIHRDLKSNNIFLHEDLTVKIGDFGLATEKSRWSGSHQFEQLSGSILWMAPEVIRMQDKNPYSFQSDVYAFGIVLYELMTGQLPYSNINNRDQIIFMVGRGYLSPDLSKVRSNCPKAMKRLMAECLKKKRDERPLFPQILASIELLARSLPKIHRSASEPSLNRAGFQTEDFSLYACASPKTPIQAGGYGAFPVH

SMILES: Cc1oncc1C(=O)Nc1ccc2cnc(-c3cc(N4CCN(C)CC4)cc(C(F)(F)F)c3)nc2c1 [Compound 7d, 5-methyl-N-(2-(3-(4-methylpiperazin-1-yl)-5-(trifluoromethyl)phenyl)quinazolin-7-yl)isoxazole-4-carboxamide]
- inhibition at 10 µM: 5.19%
